The text below walks through data of PubChem BioAssay AID1288 (Columbia University Molecular Screening Center, 2008).

A short description of assay [1]: inhibitors of TNFa-induced E-selectin expression, confirmation, imaging, retest plus dose response, cell count (AID 1288). The following applies: human endothelial cells, TNFa-induced E-selectin, imaging; cell count toxicity; at 10 µM; stronger effect = lower value.
In assay [2] the test system is human endothelial cells, TNFa-induced E-selectin, imaging. The assay is described as above.

pIC50: −log10 of the molar value. The source made the active and inactive calls. No rule for the calls is given here.

As usually defined, the pIC50 is −log10 of the IC50, conventionally taken in molar units. For `CN(CCC#N)C(=O)COC(=O)c1ccccc1C(=O)c1ccc(Cl)c([N+](=O)[O-])c1`, in assay [1], the cell count was found to be 15.6%. Besides, the pIC50 in assay [2] was 5.86.
For the compound `CCOc1cc(C(=O)NCc2ccc(-c3nc4ccccc4o3)cc2)cc(OCC)c1OCC`, the cell count in assay [1] was 22.9%. Besides, the pIC50 in assay [2] was 5.62.
With `CC(C)(C)C(=O)/C(=C\c1cccc([N+](=O)[O-])c1)n1cncn1`, the cell count in assay [1] stood at 23.9%. Also, the negative logarithm of the IC50 (pIC50) in assay [2] is 5.52.
`COC(=O)c1ccccc1NC(=O)c1ccc(-c2cccc(Cl)c2)o1`: the cell count in assay [1] stood at 13.8%. Besides, the pIC50 in assay [2] was 5.68.
For the compound `O=C(NCCC1=CCCCC1)c1coc(=O)c(Br)c1`, the cell count in assay [1] was 1.14%. The negative logarithm of the IC50 (pIC50) in assay [2] is 5.56.
Regarding `CCc1ccc(N2C(=O)NC(=O)/C(=C/c3cccn3CCOc3ccc(C(C)CC)cc3)C2=O)cc1` (stereo unspecified), the cell count in assay [1] stood at 17.9%. Besides, the pIC50 in assay [2] is 5.86.
The term IC50 denotes the midpoint of a concentration-inhibition curve. On to `C#CC(=O)N(c1cccc(OC)c1)C(C(=O)NC1CCCC1)c1cccs1` (stereo unspecified), for which, in assay [1], the cell count turned out to be 90%. Further, the IC50 in assay [2] is > 10 µM (inactive).
For the compound `COc1ccc(NC(=O)c2cc3c(Cl)nc4ccccc4c3s2)c(OC)c1`, the cell count in assay [1] worked out at 89.6%. Also, the IC50 in assay [2] was > 10 µM (inactive).
Take `COc1ccc(CS(=O)/C(Cl)=C(/Cl)C(=O)Nc2ccc(OC)nc2)cc1` (stereo unspecified): the cell count in assay [1] was 10.3%. The negative logarithm of the IC50 (pIC50) in assay [2] was 5.69.
With `CC(C)(C)C(=O)/C(=C\c1ccc([N+](=O)[O-])cc1)n1cncn1`, in assay [1], the cell count stood at 94.9%. Besides, the IC50 in assay [2] was > 10 µM (inactive).
Take `O=C(Nc1ccccc1)C1=C(c2ccccc2)S(=O)(=O)CCS1(=O)=O`: the cell count in assay [1] was found to be 77.8%. Moreover, in assay [2], the pIC50 was 5.12.
On to `C=CS(=O)(=O)c1ccc(Oc2ccc(S(=O)(=O)C=C)cc2)cc1`, for which the cell count in assay [1] was 95.2%. The IC50 in assay [2] is > 10 µM (inactive).
In the case of `Cc1ccc(-c2nc(NC(=O)c3nn(C)cc3[N+](=O)[O-])sc2C)cc1C`, the cell count in assay [1] stood at 106%. Besides, the IC50 in assay [2] was > 10 µM (inactive).
For the compound `Cc1cc2cc(C=C(C#N)C#N)c(Cl)nc2cc1C`, the cell count in assay [1] was 4.88%. Besides, the pIC50 in assay [2] is 5.62.
With `CN1C(=O)/C(=C/c2cccn2-c2ccc3ccccc3c2)C(=O)NC1=S`, the cell count in assay [1] was found to be 106%. For the same compound, the negative-log IC50 (pIC50) in assay [2] is 5.16.
For `N#CC(C#N)=C1C=CC=CN1/C(=C\c1ccco1)C(=O)c1ccc(-c2ccccc2)cc1`, in assay [1], the cell count worked out at 2.93%. Besides, the pIC50 in assay [2] was 5.55.
The corresponding values for `COc1ccc(-c2nnc(SCC(=O)N3CCOCC3)o2)cc1OC` are 18.5% and 5.39.
The corresponding values for `O=C(c1ccc([N+](=O)[O-])cc1)N(Cc1ccc(Br)cc1)N1C(=O)CCCC1=O` are 95.3% and 5.17.
As for `CN(C)c1nc(C=C(C#N)C#N)c(Cl)n1-c1ccc(F)cc1`, the cell count in assay [1] was 46.6%. Further, the negative-log IC50 (pIC50) in assay [2] is 5.76.
For the compound `O=C(Nc1ccc2oc(-c3cccnc3)nc2c1)c1ccc([N+](=O)[O-])o1`, the cell count in assay [1] was determined as 54.4%. Besides, the negative-log IC50 (pIC50) in assay [2] was 5.56.
With `COc1ccc(-c2cc(C(=O)Nc3cnn(Cc4ccccc4C)c3)no2)cc1OC`, in assay [1], the cell count was found to be 80.4%. Besides, in assay [2], the negative logarithm of the IC50 (pIC50) is 5.21.
As to `Cc1nc2scc(-c3ccccc3)c2c(=O)n1N=C1C=CC(=O)C=C1`, in assay [1], the cell count came to 92.3%. Also, the IC50 in assay [2] was > 10 µM (inactive).
Regarding `Cn1cc([N+](=O)[O-])c(C(=O)Nc2nc(-c3ccc(Cl)cc3)cs2)n1`, the cell count in assay [1] worked out at 97.8%. Moreover, the IC50 in assay [2] was > 10 µM (inactive).
With `CC(C)(C)C1=CC(=O)C(=O)C(C(C)(C)C)=C1`, the cell count in assay [1] came out at 95%. For the same compound, the IC50 in assay [2] is > 10 µM (inactive).
Take `CCN(CC)c1ccc2c(Cl)c(Br)c(=O)oc2c1`: the cell count in assay [1] was determined as 11.5%. The pIC50 in assay [2] was 5.67.
Regarding `CC(C)(C)C(=O)/C(=C/c1cccc([N+](=O)[O-])c1)n1cncn1`, the cell count in assay [1] worked out at 101%. Besides, the IC50 in assay [2] was > 10 µM (inactive).
In the case of `C=C1C(=O)C=C2CN(C(=O)c3ccccc3)[C@@](Cc3ccc(F)cc3)(C(=O)OC)[C@@H]12`, the cell count in assay [1] worked out at 104%. Besides, the IC50 in assay [2] was > 10 µM (inactive).
With `COc1cccc(-n2nc(C#N)c(Cl)cc2=O)c1`, in assay [1], the cell count was 104%. Also, the IC50 in assay [2] is > 10 µM (inactive).
Regarding `COc1ccc(NC(=O)/C(Cl)=C(/Cl)S(=O)Cc2ccc(Cl)cc2)cn1` (stereo unspecified), the cell count in assay [1] was found to be 0.27%. Moreover, the pIC50 in assay [2] is 5.78.
As to `COC(=O)/C=C/S(=O)(=O)c1ccc(NC(C)=O)cc1`, the cell count in assay [1] turned out to be 106%. Also, the IC50 in assay [2] is > 10 µM (inactive).
For `O=C(Nc1ccc2nc(SCc3ccc(Cl)cc3)sc2c1)c1ccccc1C(=O)N1CCOCC1`, the cell count in assay [1] turned out to be 40%. Besides, in assay [2], the negative-log IC50 (pIC50) was 5.55.
Consider `CCOC(=O)/C=C/S(=O)(=O)c1ccc(NC(C)=O)cc1`, for which the cell count in assay [1] came to 6.27%. Also, in assay [2], the pIC50 is 5.86.
In the case of `COc1cccc(N2CCN(c3ncnc4c3[nH]c3ccc(F)cc34)CC2C)c1` (stereo unspecified), the cell count in assay [1] is 40.9%. Besides, the negative-log IC50 (pIC50) in assay [2] is 5.85.
